From patent US11058678B2 (Enanta Pharmaceuticals, Inc., priority 2018, dated 2021)

Each molecule was assayed on HBV (2.2.15 cells) (assay: Antiviral activity in 2.2.15 cells: reduction of viral product accumulation (qPCR of lysates, HBsAg or HBeAg ELISA)). Settings: Hepatitis B virus, 120 h, day 5 post treatment, 50% reduction of viral product accumulation in lysates or supernatants vs no drug controls, readout (qPCR, HBsAg, HBeAg) not specified.
Format: cell-based, hepatitis B virus (HBV)
Method: 2.2.15 cells are passaged upon attaining confluency in DMEM/F12 media in the presence of 10% FBS, Penn/Strep, and 250 ug/mL G418. Novel compounds are 5 fold serially diluted in DMSO and added to 96 well plates containing 35,000 cells/well at a 1:200 dilution so that the final concentration of DMSO is 0.5%. On day 5, post treatment cell lysates and supernatants are harvested for analysis.
Cells are lysed using Agilent Sidestep Lysis buffer, diluted 1:100 and quantified via quantitative real time PCR. Commercially available ELISA kits are used to quantitate the viral proteins HBsAg (Alpco) or HBeAg (US Biological) by following the manufacturer's recommended protocol after diluting samples to match the linear range of their respective assays. Irrespective of readout, compound concentrations that reduce viral product accumulation in the cell lysates or supernatants by 50% relative to no drug controls (EC50) are reported; EC50 ranges are as follows: A<0.1 μM; B 0.1-1 μM; C>1 μM.

| SMILES | EC50 |
| --- | --- |
| CC(C)(C)[C@@H]1Cc2c(cc(-c3cn[nH]c3)c3c2CCO3)-c2cc(=O)c(C(=O)O)cn21 [Example 87, (S)-5-(tert-butyl)-9-oxo-12-(1H-pyrazol-4-yl)-2,3,4,9-tetrahydro-5H-furo[3,2-f]pyrido[2,1-a]isoquinoline-8-carboxylic Acid] | < 100 nM |
| CC(C)(C)[C@@H]1Cc2c(cc(N3CCCC3)c3c2CCO3)-c2cc(=O)c(C(=O)O)cn21 [Example 88, (S)-5-(tert-butyl)-9-oxo-12-(pyrrolidin-1-yl)-2,3,4,9-tetrahydro-5H-furo[3,2-f]pyrido[2,1-a]isoquinoline-8-carboxylic Acid] | < 100 nM |
| CC(C)[C@@H]1Cc2c(cc(-c3ccc(F)cc3)c3c2CCO3)-c2cc(=O)c(C(=O)O)cn21 [Example 89, (S)-12-(4-fluorophenyl)-5-isopropyl-9-oxo-2,3,4,9-tetrahydro-5H-furo[3,2-f]pyrido[2,1-a]isoquinoline-8-carboxylic Acid] | < 100 nM |
| CC(C)[C@@H]1Cc2c(cc(-c3ccoc3)c3c2CCO3)-c2cc(=O)c(C(=O)O)cn21 [Example 90, (S)-12-(furan-3-yl)-5-isopropyl-9-oxo-2,3,4,9-tetrahydro-5H-furo[3,2-f]pyrido[2,1-a]isoquinoline-8-carboxylic Acid] | < 100 nM |
| CC(C)[C@@H]1Cc2c(cc(-c3cnco3)c3c2CCO3)-c2cc(=O)c(C(=O)O)cn21 [Example 91, (S)-5-isopropyl-12-(oxazol-5-yl)-9-oxo-2,3,4,9-tetrahydro-5H-furo[3,2-f]pyrido[2,1-a]isoquinoline-8-carboxylic Acid] | < 100 nM |
| COc1cccc(-c2cc3c(c4c2OCC4)C[C@@H](C(C)C)n2cc(C(=O)O)c(=O)cc2-3)c1 [Example 92, (S)-5-isopropyl-12-(3-methoxyphenyl)-9-oxo-2,3,4,9-tetrahydro-5H-furo[3,2-f]pyrido[2,1-a]isoquinoline-8-carboxylic Acid] | < 100 nM |
| CC(C)[C@@H]1Cc2c(cc(-c3ccccc3)c3c2CCO3)-c2cc(=O)c(C(=O)O)cn21 [Example 93, (S)-5-isopropyl-9-oxo-12-phenyl-2,3,4,9-tetrahydro-5H-furo[3,2-f]pyrido[2,1-a]isoquinoline-8-carboxylic Acid] | < 100 nM |
| CC(C)[C@@H]1Cc2c(cc(-c3ccc(C(F)(F)F)cc3)c3c2CCO3)-c2cc(=O)c(C(=O)O)cn21 [Example 94, (S)-5-isopropyl-9-oxo-12-(4-(trifluoromethyl)phenyl)-2,3,4,9-tetrahydro-5H-furo[3,2-f]pyrido[2,1-a]isoquinoline-8-carboxylic Acid] | > 1000 nM |
| CC(C)[C@@H]1Cc2c(cc(-c3cccc(C(F)(F)F)c3)c3c2CCO3)-c2cc(=O)c(C(=O)O)cn21 [Example 95, (S)-5-isopropyl-9-oxo-12-(3-(trifluoromethyl)phenyl)-2,3,4,9-tetrahydro-5H-furo[3,2-f]pyrido[2,1-a]isoquinoline-8-carboxylic Acid] | > 1000 nM |
| CC(C)[C@@H]1Cc2c(cc(-c3ccnn3C)c3c2CCO3)-c2cc(=O)c(C(=O)O)cn21 [Example 96, (S)-5-isopropyl-12-(1-methyl-1H-pyrazol-5-yl)-9-oxo-2,3,4,9-tetrahydro-5H-furo[3,2-f]pyrido[2,1-a]isoquinoline-8-carboxylic Acid] | < 100 nM |
| CC(C)[C@@H]1Cc2c(cc(-c3cnn(C)c3)c3c2CCO3)-c2cc(=O)c(C(=O)O)cn21 [Example 97, (S)-5-isopropyl-12-(1-methyl-1H-pyrazol-4-yl)-9-oxo-2,3,4,9-tetrahydro-5H-furo[3,2-f]pyrido[2,1-a]isoquinoline-8-carboxylic Acid] | < 100 nM |
| CC(C)[C@@H]1Cc2c(cc(-c3ccn(C)n3)c3c2CCO3)-c2cc(=O)c(C(=O)O)cn21 [Example 98, (S)-5-isopropyl-12-(1-methyl-1H-pyrazol-3-yl)-9-oxo-2,3,4,9-tetrahydro-5H-furo[3,2-f]pyrido[2,1-a]isoquinoline-8-carboxylic Acid] | > 1000 nM |
| CC(C)[C@@H]1Cc2c(cc(-c3cccs3)c3c2CCO3)-c2cc(=O)c(C(=O)O)cn21 [Example 99, (S)-5-isopropyl-9-oxo-12-(thiophen-2-yl)-2,3,4,9-tetrahydro-5H-furo[3,2-f]pyrido[2,1-a]isoquinoline-8-carboxylic Acid] | < 100 nM |
| CC(C)[C@@H]1Cc2c(cc(-c3ccco3)c3c2CCO3)-c2cc(=O)c(C(=O)O)cn21 [Example 101, (S)-12-(furan-2-yl)-5-isopropyl-9-oxo-2,3,4,9-tetrahydro-5H-furo[3,2-f]pyrido[2,1-a]isoquinoline-8-carboxylic Acid] | < 100 nM |
| CC(C)[C@@H]1Cc2c(cc(-c3cn[nH]c3)c3c2CCO3)-c2cc(=O)c(C(=O)O)cn21 [Example 102, (S)-5-isopropyl-9-oxo-12-(1H-pyrazol-4-yl)-2,3,4,9-tetrahydro-5H-furo[3,2-f]pyrido[2,1-a]isoquinoline-8-carboxylic Acid] | < 100 nM |
| CC(C)[C@@H]1Cc2c(cc(-c3cnsc3)c3c2CCO3)-c2cc(=O)c(C(=O)O)cn21 [Example 103, (S)-5-isopropyl-12-(isothiazol-4-yl)-9-oxo-2,3,4,9-tetrahydro-5H-furo[3,2-f]pyrido[2,1-a]isoquinoline-8-carboxylic Acid] | < 100 nM |
| CC(C)[C@@H]1Cc2c(cc(-c3ccncc3)c3c2CCO3)-c2cc(=O)c(C(=O)O)cn21 [Example 104, (S)-5-isopropyl-9-oxo-12-(pyridin-4-yl)-2,3,4,9-tetrahydro-5H-furo[3,2-f]pyrido[2,1-a]isoquinoline-8-carboxylic Acid] | < 100 nM |
| CC(C)[C@@H]1Cc2c(cc(-c3cccnc3)c3c2CCO3)-c2cc(=O)c(C(=O)O)cn21 [Example 105, (S)-5-isopropyl-9-oxo-12-(pyridin-3-yl)-2,3,4,9-tetrahydro-5H-furo[3,2-f]pyrido[2,1-a]isoquinoline-8-carboxylic Acid] | < 100 nM |
| CC(C)[C@@H]1Cc2c(cc(-c3ccn[nH]3)c3c2CCO3)-c2cc(=O)c(C(=O)O)cn21 [Example 106, (S)-5-isopropyl-9-oxo-12-(1H-pyrazol-5-yl)-2,3,4,9-tetrahydro-5H-furo[3,2-f]pyrido[2,1-a]isoquinoline-8-carboxylic Acid] | < 100 nM |
| CC(C)[C@@H]1Cc2c(cc(-c3cccc(F)c3)c3c2CCO3)-c2cc(=O)c(C(=O)O)cn21 [Example 107, (S)-12-(3-fluorophenyl)-5-isopropyl-9-oxo-2,3,4,9-tetrahydro-5H-furo[3,2-f]pyrido[2,1-a]isoquinoline-8-carboxylic Acid] | < 100 nM |
| CC(C)[C@@H]1Cc2c(cc(-c3ccccc3F)c3c2CCO3)-c2cc(=O)c(C(=O)O)cn21 [Example 108, (S)-12-(2-fluorophenyl)-5-isopropyl-9-oxo-2,3,4,9-tetrahydro-5H-furo[3,2-f]pyrido[2,1-a]isoquinoline-8-carboxylic Acid] | < 100 nM |
| CC(C)[C@@H]1Cc2c(cc(-c3ccc(Cl)cc3)c3c2CCO3)-c2cc(=O)c(C(=O)O)cn21 [Example 109, (S)-12-(4-chlorophenyl)-5-isopropyl-9-oxo-2,3,4,9-tetrahydro-5H-furo[3,2-f]pyrido[2,1-a]isoquinoline-8-carboxylic Acid] | > 1000 nM |
| CC(C)[C@@H]1Cc2c(cc(N3CCCC3)c3c2CCO3)-c2cc(=O)c(C(=O)O)cn21 [Example 110, (S)-5-isopropyl-9-oxo-12-(pyrrolidin-1-yl)-2,3,4,9-tetrahydro-5H-furo[3,2-f]pyrido[2,1-a]isoquinoline-8-carboxylic Acid] | < 100 nM |
| CC(C)(C)[C@@H]1Cc2c(cc(N3CCC3)c3c2CCO3)-c2cc(=O)c(C(=O)O)cn21 [Example 111, (S)-12-(azetidin-1-yl)-5-(tert-butyl)-9-oxo-2,3,4,9-tetrahydro-5H-furo[3,2-f]pyrido[2,1-a]isoquinoline-8-carboxylic Acid] | < 100 nM |
| CC(C)[C@@H]1Cc2c(cc(-c3cccc(Cl)c3)c3c2CCO3)-c2cc(=O)c(C(=O)O)cn21 [Example 112, (S)-12-(3-chlorophenyl)-5-isopropyl-9-oxo-2,3,4,9-tetrahydro-5H-furo[3,2-f]pyrido[2,1-a]isoquinoline-8-carboxylic Acid] | > 1000 nM |
| CC(C)[C@@H]1Cc2c(cc(-c3ccccc3Cl)c3c2CCO3)-c2cc(=O)c(C(=O)O)cn21 [Example 113] | > 1000 nM |
| CC(C)[C@@H]1Cc2c(cc(-c3ccc(F)c(F)c3)c3c2CCO3)-c2cc(=O)c(C(=O)O)cn21 [Example 114, (S)-12-(3,4-difluorophenyl)-5-isopropyl-9-oxo-2,3,4,9-tetrahydro-5H-furo[3,2-f]pyrido[2,1-a]isoquinoline-8-carboxylic Acid] | > 1000 nM |
| COc1ccc(-c2cc3c(c4c2OCC4)C[C@@H](C(C)C)n2cc(C(=O)O)c(=O)cc2-3)cc1 [Example 115, (S)-5-isopropyl-12-(4-methoxyphenyl)-9-oxo-2,3,4,9-tetrahydro-5H-furo[3,2-f]pyrido[2,1-a]isoquinoline-8-carboxylic Acid] | > 1000 nM |
| CC(C)[C@@H]1Cc2c(cc(-n3cccn3)c3c2CCO3)-c2cc(=O)c(C(=O)O)cn21 [Example 116] | < 100 nM |
| CC(C)[C@@H]1Cc2c(cc(N3CCC3)c3c2CCO3)-c2cc(=O)c(C(=O)O)cn21 [Example 117, (S)-12-(azetidin-1-yl)-5-isopropyl-9-oxo-2,3,4,9-tetrahydro-5H-furo[3,2-f]pyrido[2,1-a]isoquinoline-8-carboxylic Acid] | < 100 nM |
